Laboratory results from US20260108600A1, “METHODS AND COMPOSITIONS RELATING TO IMPROVED IONIC LIQUID ADJUVANTS” (PRESIDENT AND FELLOWS OF HARVARD COLLEGE, priority 2022, published 2026).
“Also recorded” adds a separate entry of the source. Like-named read-outs stand apart in the source and are kept apart here.

What was measured:
[1] = anion; cited from earlier work
mytotubes (C2C12 cells) = conditions: IL at varying concentrations, with or without OVA
Experimental: (§1) The impact of differential payloads impacting the ChoSorb response was investigated in vitro. The experiment was done with IL alone and IL+OVA at each concentration to understand how payload (OVA) impacts the cell death pathway since payload may impact the early cell death pathway. Cells were treated with IL at varying concentrations and with or without OVA, then stained with Annexin V and PI at 24 hours (FIGS. 28A-28B).

primary dendritic cells = conditions: IL at varying concentrations, with or without OVA
Experimental: as §1

Balb/c mice = tested on: Balb/c mice
Experimental: Balb/c mice received one immunization with 10% IL (w/v) and ovalbumin as a model antigen. The antibody and humoral response was then measured.
(§2) Cytokine responses were measured 4 hours after injection.
Antibody responses were measured 14 days after injection.

C57BL/6 mice = tested on: C57BL/6 mice
Experimental: C57BL/6 mice received two immunizations with 10% IL (w/v) and ovalbumin as a model antigen, at day 0 and day 14.
as §2
Antibody responses were measured 14 and 28 days after injection.
T cell responses were measured 7, 14, 21, or 28 days after injection.

Balb/c and C57BL/6 mice = conditions: after priming and booster shot
Experimental: In vivo vaccination of OVA with IL adjuvants in Balb/c and C57BL/6 mice. Antigen-specific antibodies and CD8+ T cell responses were evaluated after priming and booster shot.

LPO expression = LPO expression with or without deferoxamine (ferroptosis indication); format: cell-based
[2] = 10% ChoSorb injections
Experimental: Blood was drawn 4 and 24 hours after the initial dose, and the levels of IL6 and MCP-1 measured (FIGS. 11A-11D). The levels of Tetramer cells were measured at Day 21 and Day 35 (FIGS. 12A-12D). […] The antibody response was measured (FIGS. 13A-13B).

OVA = target: T1, OVA (Gallus gallus, UniProt P01012); test: Stability of OVA combined with IL adjuvants (dialysis/SEC, circular dichroism, SDS page); format: physicochemical
T1 sequence (P01012 1-386): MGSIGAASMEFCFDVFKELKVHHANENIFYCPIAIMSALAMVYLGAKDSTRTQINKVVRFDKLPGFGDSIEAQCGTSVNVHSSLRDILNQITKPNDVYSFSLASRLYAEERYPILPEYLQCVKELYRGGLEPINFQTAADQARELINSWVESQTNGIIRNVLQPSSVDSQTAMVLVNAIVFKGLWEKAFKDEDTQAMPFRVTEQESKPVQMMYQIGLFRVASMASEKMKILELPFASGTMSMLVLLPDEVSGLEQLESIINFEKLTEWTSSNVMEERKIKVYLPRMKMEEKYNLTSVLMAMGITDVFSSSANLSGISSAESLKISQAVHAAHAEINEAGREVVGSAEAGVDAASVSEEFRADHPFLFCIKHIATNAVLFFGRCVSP
Text: Anions were varied based on hydrophobicity (FIG. 8). […] ILs were screened for: • a. Stability of OVA. […] In vitro immune cell maturation and activation.
Role of the payload. […] Simple dialysis was replaced by SEC to remove OVA from ChoShorb formulations.

[3] = lower doses, comparing across IL concentration
[4] = 4 hours after injection, 10% IL (w/v) with ovalbumin

Q: Which LogP [1] does the source give for `CC=C(C)C=C(C)C(=O)O` [2,4-Dimethyl-2,4-hexadienoic acid] here?
A: 2.3

Q: For `CC/C=C\C=C\C(=O)O` [2,4-Heptadienoic acid, (2E,4Z)-], which LogP [1] is on record?
A: 1.8

Q: For `C=CCCC/C=C/C(=O)O` [2E,7-Octadienoic acid], which LogP [1] is on record?
A: 2.2

Q: Which LogP [1] does the source give for `C=CC=CCCC(=O)O` [4,6-Heptadienoic acid] here?
A: 1.5

Q: Which LogP [1] does the source give for `C=CC=CCCCC(=O)O` [5,7-Octadienoic acid] here?
A: 1.8

Q: Which LogP [1] does the source give for `CCCCCCCCC=CCCCCCC=CCCC(=O)O` [11,4-Eicosadienoic Acid] here?
A: 7.9

Q: For `CC(C)=C(C)/C=C/C(=O)O` [(2E)-4,5-dimethyl-2,4-hexadienoic acid], which LogP [1] is on record?
A: 2.5

Q: Which LogP [1] does the source give for `C=CCC/C=C/C(=O)O` [(2E)-hepta-2,6-dienoic acid] here?
A: 1.6

Q: For `C/C=C/C/C=C/C(=O)O` [(2E,5E)-2,5-Heptadienoic acid], which LogP [1] is on record?
A: 1.6

Q: For `C/C=C/CC/C=C/C(=O)O` [(2E,6E)-2,6-Octadienoic acid], which LogP [1] is on record?
A: 1.8

Q: With `CCC/C=C/C=C\C(=O)O` [(2Z,4E)-Octa-2,4-dienoic acid] as the compound, how does the LogP [1] read?
A: 2.3

Q: Which LogP [1] does the source give for `C=CCC/C=C/CC(=O)O` [(3E)-3,7-octadienoic acid] here?
A: 1.8

Q: With `CCC/C=C\CC/C=C\CCCCCC(=O)O` [(7Z,11Z)-pentadeca-7,11-dienoate] as the compound, how does the LogP [1] read?
A: 5.4

Q: Which LogP [1] does the source give for `C/C=C\CC/C=C\CCCCCCCC(=O)O` [(9Z,13Z)-pentadeca-9,13-dienoate] here?
A: 5.5

Q: What does the source list for `C/C=C/C=C/C(=O)[O-].C[N+](C)(C)CCO` [ChoSorb, choline:sorbic acid]?
A: apoptosis (Annexin V and PI) (mytotubes (C2C12 cells)): apoptosis occurs after 24 hours; apoptosis (Annexin V and PI) (primary dendritic cells): apoptosis occurs after 24 hours; IL-6 concentrations (Balb/c mice; [4]): significantly higher; Total IgG antibody titers (Balb/c mice; Day 14): significantly increased; IL-6 concentrations (C57BL/6 mice; [4]): significantly higher; Total IgG antibody titers (C57BL/6 mice; Day 14): significantly increased; CD4+ memory T cells (C57BL/6 mice; Day 21): significant increase; Th1/Th2 antibody response (IgG2c, IgG1) (C57BL/6 mice; Day 28): balanced immune response; Total IgG antibody titers (C57BL/6 mice; Day 28): significantly increased; level of antigen-specific T cells (OVA-tetramer staining of CD8+ T cells) (C57BL/6 mice; especially after a booster vaccination): significantly increased; antigen-specific immune response (T-cell and antibody) (Balb/c and C57BL/6 mice): create an antigen-specific immune response in both T-cell and antibody responses; LPO expression (LPO expression; early time points): induces LPO expression; LPO expression (LPO expression; treated with deferoxamine (DFO), an iron chelator): not when treated with deferoxamine (DFO); muscle tightness after injection [2]: cause muscle tightness over time; chemokine and cytokine levels in the serum (24 hour mark): significantly higher than saline; chemokine and cytokine levels in the serum (48 hour mark): no significant difference from saline; CD4+ T cells (among infiltrating cell types): significant increase; CD45+ cell infiltration into the muscle (compared to saline): more significant rate; inflammatory monocytes (draining lymph node): increase; mature resident cDC1 dendritic cells (draining lymph node): increase; Neutrophils (draining lymph node (dLN) after IL injection): spiked; Monocytes (injection site): increased significantly; inflammatory monocytes (injection site): increased significantly; IL-6 (serum): upregulated; MCP-1 (serum): upregulated; antigen (OVA) stability in IL formulation (OVA): preserve antigen stability; also recorded: stable; binding of OVA by IL (OVA; simple dialysis replaced by SEC to remove OVA): bound strongly; tetramer cell levels, separate vs combo delivery [3]: outperformed combo doses

Q: Which LogP [1] does the source give for `CC=CCCC=CCC(=O)O` [Nona-3,7-dienoate] here?
A: 2.6

Q: With `CCC=CC=CCC(=O)O` [Octa-3,5-dienoic acid] as the compound, how does the LogP [1] read?
A: 1.8

Q: With `C/C=C/C=C/C(=O)O` [Sorbic Acid] as the compound, how does the LogP [1] read?
A: 1.43
